Test results as given in the supplement of paper PMC11208160.

Assay: recombinant UMI read abundance after kanamycin selection (control-corrected) (log10(CPM+1)); higher = more efficient recombination; extreme values may be limits of the assay; sequences stand for … in AGTGCAGAGAAAATCGGCCAGTTTTCTCTGCCTGCAGTCCGCATGCCGTGGGACCCCTTGGGTTCTAACCTGTTGCCTAGATTTATGCAGCGGACTGCCTTTCTCCCAAAGTGATAAACCGG…AGGTTGGTTTCACT; site = the 11-nt donor
Procedure, shortened: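 The measure is log10(CPM+1) for recombinant UMIs. These were PCR-amplified across the donor–target junction and sequenced after Escherichia coli carrying a donor and donor-binding-loop pair library and a target plasmid with T7-inducible IS621 bridge recombinase was plated on IPTG (0.07 mM) plus kanamycin or unselected. CPM were averaged over two replicates and scaled by control-derived factors.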
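Further: IS621 bridge recombinase in Escherichia coli cells against a fixed T5 target plasmid.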

Sequence	recombinant UMI read abundance (log10)
GGTTTGGCATGGACCGGTTTTCCCGGTAATCCGTATTTGCT (site GGTTTGGCTAG)	0
GGTTTGGCATGGACCGGTTTTCCCGGTAATCCGTATTTGCT (site TGTTTGGCTAG)	0.00406
GTAAACGCATGGACCGGTTTTCCCGGTAATCCGTATTTGTT (site GTAAACGCTAA)	2.59
GTAACGCCATGGACCGGTTTTCCCGGTAATCCGTATTTGGT (site GTAACGCCTAC)	0.517
GTAAGTACATGGACCGGTTTTCCCGGTAATCCGTATTTGAC (site GTAAGTACTGT)	2.96
GTAAGTACATGGACCGGTTTTCCCGGTAATCCGTATTTGAC (site GTACGTACTGT)	0
GTAAGTACATGGACCGGTTTTCCCGGTAATCCGTATTTGAC (site GTAGGTACTGT)	0.255
GTAAGTACATGGACCGGTTTTCCCGGTAATCCGTATTTGAC (site GTATGTACTGT)	0.67
GTAATATCATGGACCGGTTTTCCCGGTAATCCGTATTTGCA (site GTAATATCTTG)	2.6
GTAATCACATGGACCGGTTTTCCCGGTAATCCGTATTTGCG (site GTAATCACTCG)	2.48
GTACGAGCATGGACCGGTTTTCCCGGTAATCCGTATTTGCA (site GTACGAGCTTG)	2.55
GTACGAGCATGGACCGGTTTTCCCGGTAATCCGTATTTGCA (site GTCCGAGCTTG)	0.87
GTACGAGCATGGACCGGTTTTCCCGGTAATCCGTATTTGCA (site GTGCGAGCTTG)	2.02
GTACGAGCATGGACCGGTTTTCCCGGTAATCCGTATTTGCA (site GTTCGAGCTTG)	0.659
GTACTAACATGGACCGGTTTTCCCGGTAATCCGTATTTGGA (site ATACTAACTTC)	0.569
GTACTAACATGGACCGGTTTTCCCGGTAATCCGTATTTGGA (site CTACTAACTTC)	0.455
GTACTAACATGGACCGGTTTTCCCGGTAATCCGTATTTGGA (site GTACTAACTTC)	1.29
GTACTAACATGGACCGGTTTTCCCGGTAATCCGTATTTGGA (site TTACTAACTTC)	0.593
GTAGATACATGGACCGGTTTTCCCGGTAATCCGTATTTGAC (site GTAGATACTGT)	2.29
GTAGATACATGGACCGGTTTTCCCGGTAATCCGTATTTGAC (site GTAGCTACTGT)	0
GTAGATACATGGACCGGTTTTCCCGGTAATCCGTATTTGAC (site GTAGGTACTGT)	1.38
GTAGATACATGGACCGGTTTTCCCGGTAATCCGTATTTGAC (site GTAGTTACTGT)	0.903
GTAGATTCATGGACCGGTTTTCCCGGTAATCCGTATTTGCA (site GTAGATTCTTG)	2.86
GTAGCAGCATGGACCGGTTTTCCCGGTAATCCGTATTTGGA (site GTAGCAGCTTC)	0.62
GTAGCTCCATGGACCGGTTTTCCCGGTAATCCGTATTTGAA (site GTAGCTCCTTT)	1

Sequence	recombinant UMI read abundance (log10)
GTAGGGACATGGACCGGTTTTCCCGGTAATCCGTATTTGAC (site GTAGGAACTGT)	2.21
GTAGGGACATGGACCGGTTTTCCCGGTAATCCGTATTTGAC (site GTAGGCACTGT)	2.04
GTAGGGACATGGACCGGTTTTCCCGGTAATCCGTATTTGAC (site GTAGGGACTGT)	2.63
GTAGGGACATGGACCGGTTTTCCCGGTAATCCGTATTTGAC (site GTAGGTACTGT)	1.87
GTAGGTACATGGACCGGTTTTCCCGGTAATCCGTATTTGTT (site GTAGGTACTAA)	1.01
GTAGGTCCATGGACCGGTTTTCCCGGTAATCCGTATTTGAC (site GTAGGTACTGT)	0
GTAGGTCCATGGACCGGTTTTCCCGGTAATCCGTATTTGAC (site GTAGGTCCTGT)	0
GTAGGTCCATGGACCGGTTTTCCCGGTAATCCGTATTTGAC (site GTAGGTGCTGT)	0
GTAGGTCCATGGACCGGTTTTCCCGGTAATCCGTATTTGAC (site GTAGGTTCTGT)	0
GTAGGTTCATGGACCGGTTTTCCCGGTAATCCGTATTTGAC (site GTAGGTACTGT)	1.88
GTAGGTTCATGGACCGGTTTTCCCGGTAATCCGTATTTGAC (site GTAGGTCCTGT)	1.78
GTAGGTTCATGGACCGGTTTTCCCGGTAATCCGTATTTGAC (site GTAGGTGCTGT)	0
GTAGGTTCATGGACCGGTTTTCCCGGTAATCCGTATTTGAC (site GTAGGTTCTGT)	2.46
GTAGTATCATGGACCGGTTTTCCCGGTAATCCGTATTTGAT (site CTAGTATCTGT)	1.05
GTAGTATCATGGACCGGTTTTCCCGGTAATCCGTATTTGAT (site GTAGTATCTAT)	3.08
GTAGTGGCATGGACCGGTTTTCCCGGTAATCCGTATTTGGT (site GAAGTGGCTAC)	0.458
GTAGTGGCATGGACCGGTTTTCCCGGTAATCCGTATTTGGT (site GCAGTGGCTAC)	0.771
GTAGTGGCATGGACCGGTTTTCCCGGTAATCCGTATTTGGT (site GGAGTGGCTAC)	0.028
GTAGTGGCATGGACCGGTTTTCCCGGTAATCCGTATTTGGT (site GTAGTGGCTAC)	1.85
GTAGTGTCATGGACCGGTTTTCCCGGTAATCCGTATTTGAC (site CTAGTATCTGT)	2.03
GTAGTGTCATGGACCGGTTTTCCCGGTAATCCGTATTTGAC (site GTAGTGTCTGT)	3.23
GTAGTTTCATGGACCGGTTTTCCCGGTAATCCGTATTTGTA (site GTAGTTTCTTA)	2.61
GTATGCACATGGACCGGTTTTCCCGGTAATCCGTATTTGCA (site GTATGCACTTA)	0.546
GTATGCACATGGACCGGTTTTCCCGGTAATCCGTATTTGCA (site GTATGCACTTC)	0.0124
GTATGCACATGGACCGGTTTTCCCGGTAATCCGTATTTGCA (site GTATGCACTTG)	2.67

Sequence	recombinant UMI read abundance (log10)
GTATGCACATGGACCGGTTTTCCCGGTAATCCGTATTTGCA (site GTATGCACTTT)	0.427
GTATGCACATGGACCGGTTTTCCCGGTAATCCGTATTTGTA (site ATATGCACTTA)	0.664
GTATGCACATGGACCGGTTTTCCCGGTAATCCGTATTTGTA (site CTATGCACTTA)	0.712
GTATGCACATGGACCGGTTTTCCCGGTAATCCGTATTTGTA (site GAATGCACTTA)	0.0229
GTATGCACATGGACCGGTTTTCCCGGTAATCCGTATTTGTA (site GCATGCACTTA)	0.671
GTATGCACATGGACCGGTTTTCCCGGTAATCCGTATTTGTA (site GGATGCACTTA)	0.58
GTATGCACATGGACCGGTTTTCCCGGTAATCCGTATTTGTA (site GTAAGCACTTA)	0.776
GTATGCACATGGACCGGTTTTCCCGGTAATCCGTATTTGTA (site GTACGCACTTA)	1.72
GTATGCACATGGACCGGTTTTCCCGGTAATCCGTATTTGTA (site GTAGGCACTTA)	0.461
GTATGCACATGGACCGGTTTTCCCGGTAATCCGTATTTGTA (site GTATACACTTA)	2.07
GTATGCACATGGACCGGTTTTCCCGGTAATCCGTATTTGTA (site GTATCCACTTA)	0.28
GTATGCACATGGACCGGTTTTCCCGGTAATCCGTATTTGTA (site GTATGAACTTA)	0.66
GTATGCACATGGACCGGTTTTCCCGGTAATCCGTATTTGTA (site GTATGCACTAA)	0.126
GTATGCACATGGACCGGTTTTCCCGGTAATCCGTATTTGTA (site GTATGCACTCA)	0.0356
GTATGCACATGGACCGGTTTTCCCGGTAATCCGTATTTGTA (site GTATGCACTGA)	1.72
GTATGCACATGGACCGGTTTTCCCGGTAATCCGTATTTGTA (site GTATGCACTTA)	2.07
GTATGCACATGGACCGGTTTTCCCGGTAATCCGTATTTGTA (site GTATGCACTTC)	0.0256
GTATGCACATGGACCGGTTTTCCCGGTAATCCGTATTTGTA (site GTATGCACTTG)	1.71
GTATGCACATGGACCGGTTTTCCCGGTAATCCGTATTTGTA (site GTATGCACTTT)	0.44
GTATGCACATGGACCGGTTTTCCCGGTAATCCGTATTTGTA (site GTATGCCCTTA)	0.0248
GTATGCACATGGACCGGTTTTCCCGGTAATCCGTATTTGTA (site GTATGCGCTTA)	0.376
GTATGCACATGGACCGGTTTTCCCGGTAATCCGTATTTGTA (site GTATGCTCTTA)	1.19
GTATGCACATGGACCGGTTTTCCCGGTAATCCGTATTTGTA (site GTATGGACTTA)	0.0258
GTATGCACATGGACCGGTTTTCCCGGTAATCCGTATTTGTA (site GTATGTACTTA)	0.274
GTATGCACATGGACCGGTTTTCCCGGTAATCCGTATTTGTA (site GTATTCACTTA)	1.3
